Assay: clinical trial: lipoprotein profiles in blood serum of patients treated with a PDE4 inhibitor (ultracentrifugation density separation)
Type: in vivo, human
Description: In a clinical trial, five patients were treated by daily doses of a PDE4 inhibitor. As an exemplifying and representative compound, roflumilast was used as the PDE4 inhibitor. Lipoprotein profiles were measured at start of the therapy (time T0), four weeks after start (T1) and eight weeks after start (T2). Treatment was further monitored thereafter. In an embodiment, a first unit dose ([…]) was administered orally every second day for a period of four weeks, and subsequently the dose was increased to a unit of […] per day until a time of 8 weeks.
For analysing and measuring the lipoprotein profiles and thus the relative concentrations and levels of lipoprotein fractions and the cholesterol and triglyceride amounts per lipoprotein, 10 ml venous blood was drawn at the indicated time Points. Lipoprotein profiles and fractions were determined using density separation by means of ultra-centrifugation and subsequent determination of the lipoprotein components (Baumstark et al., Biochem. Biophys. Acta—Protein Structure and Molecular Enzymology 1037, 48-57 (1990); Frey et al., Eur. J. Appl, Physiol. 60, 441-444 (1990)). The components and parameters determined include cholesterol and triglyceride proportions of HDL and LDL, and of sub-fractions LDL-1 to LDL-6, and HDL-2a-2b and -3. Statistical analysis of the results was carried out by SPSS 23.0.

[1] = five patients, oral roflumilast, T1 (4 weeks) and T2 (8 weeks) compared to T0, blood serum
[2] = five patients, oral roflumilast, blood serum

O=C(Nc1c(Cl)cncc1Cl)c1ccc(OC(F)F)c(OCC2CC2)c1 [roflumilast, 3-cyclopropylmethoxy-4-difluoromethoxy-N-(3,5-dichloropyrid-4-yl)-benzamide]
persistence of the reduction of LDL-C (after 12 weeks (not shown)): maintained over longer time periods
persistence of the reduction of LDL-TG (after 12 weeks (not shown)): maintained over longer time periods
change of LDL-TG [1]: substantially reduced
reduction of LDL-C [1]: approximately 30 mg/dl
change of HDL-C [2]: Slight reductions
change of HDL-TG [2]: Slight reductions
